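Where inhibition never reached the appropriate level, the endpoint shown equals the highest concentration tested. Otherwise, values were interpolated linearly from a five-concentration, 48-hour dose response in 96-well plates. Abbreviation: GI50, concentration required for 50% inhibition of growth.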 Activity calls are given as the source filed them. Rule as the data show it: active = GI50 up to about 1.1 µM and inactive = higher.
Legend:
Test in all cases: NCI tumour cell line growth inhibition, 48 h
SK-MEL-5 = test system: SK-MEL-5
HOP-62 = test system: HOP-62
OVCAR-3 = test system: OVCAR-3
NCI-H522 = test system: NCI-H522
OVCAR-4 = test system: OVCAR-4
EKVX = test system: EKVX
HT-29 = test system: HT-29
UACC-62 = test system: UACC-62
NCI-H226 = test system: NCI-H226
LOX IMVI = test system: LOX IMVI
KM-20L2 = test system: KM-20L2
SW-620 = test system: SW-620
RXF 393 = test system: RXF 393
Malme-3M = test system: Malme-3M
UO-31 = test system: UO-31
SR = test system: SR
RPMI-8226 = test system: RPMI-8226
HOP-92 = test system: HOP-92
MDA-MB-435 = test system: MDA-MB-435
BT-549 = test system: BT-549

Measured: GI50

O=C1C=C(Nc2ccc(Cl)cc2C(=O)c2ccccc2)c2ccccc2C1=O
inactive: SK-MEL-5 > 100 µM | HOP-62 > 100 µM | OVCAR-3 > 100 µM | NCI-H522 > 100 µM | OVCAR-4 > 100 µM | EKVX > 100 µM | HT-29 > 100 µM | UACC-62 > 100 µM | NCI-H226 > 100 µM | LOX IMVI > 100 µM | KM-20L2 > 100 µM | SW-620 > 100 µM | RXF 393 > 100 µM | Malme-3M > 100 µM | UO-31 > 100 µM

O=c1ccc2ccccc2c2ccccc12
inactive: SK-MEL-5 2.9 µM | HOP-62 3.24 µM | OVCAR-3 3.4 µM | SR 1.52 µM | NCI-H522 4.37 µM | OVCAR-4 8.07 µM | EKVX 17.3 µM | HT-29 2.93 µM | UACC-62 2.27 µM | NCI-H226 4.27 µM | LOX IMVI 1.91 µM | KM-20L2 1.94 µM | RPMI-8226 2.23 µM | SW-620 3.3 µM | Malme-3M 10.4 µM | UO-31 3.81 µM

O=c1c2ccccc2nc(-c2cccc(Cl)c2)n1NC1OC(CO)C(O)C(O)C1O (stereo not given)
inactive: HOP-92 > 100 µM | SK-MEL-5 > 100 µM | HOP-62 > 100 µM | OVCAR-3 > 100 µM | NCI-H522 > 100 µM | OVCAR-4 > 100 µM | EKVX > 100 µM | HT-29 > 100 µM | UACC-62 > 100 µM | NCI-H226 > 100 µM | KM-20L2 > 100 µM | RPMI-8226 > 100 µM | SW-620 > 100 µM | Malme-3M > 100 µM | UO-31 > 100 µM

O=C(N/N=C/c1cc(Cl)cc(Cl)c1O)c1ccncc1
inactive: SK-MEL-5 81.3 µM | HOP-62 53.2 µM | OVCAR-3 32.2 µM | SR 39.1 µM | NCI-H522 > 100 µM | EKVX 22 µM | HT-29 > 10 µM | UACC-62 63 µM | NCI-H226 > 100 µM | LOX IMVI > 100 µM | KM-20L2 37.3 µM | RPMI-8226 > 100 µM | SW-620 > 100 µM | RXF 393 > 100 µM | Malme-3M > 100 µM | UO-31 71.1 µM

CCOC(=O)[C@@]12C(C)=CC(=O)O[C@]1(C)C[C@H]2C#N
inactive: HOP-92 > 100 µM | SK-MEL-5 > 100 µM | HOP-62 > 100 µM | OVCAR-3 > 100 µM | OVCAR-4 > 100 µM | EKVX > 100 µM | HT-29 > 100 µM | UACC-62 > 100 µM | NCI-H226 50.9 µM | LOX IMVI > 100 µM | KM-20L2 > 100 µM | RPMI-8226 > 100 µM | SW-620 > 100 µM | RXF 393 > 100 µM | Malme-3M > 100 µM | UO-31 > 100 µM

COC(=O)/C(C)=C/[N+](=O)[O-]
inactive: HOP-92 9.53 µM | SK-MEL-5 23 µM | HOP-62 25.4 µM | OVCAR-3 16 µM | OVCAR-4 17.5 µM | EKVX 15.9 µM | HT-29 20.6 µM | UACC-62 17.9 µM | LOX IMVI 18.7 µM | KM-20L2 25 µM | RPMI-8226 2.77 µM | SW-620 5.38 µM | RXF 393 21.2 µM | Malme-3M 17.3 µM | UO-31 18.9 µM

C[C@]12CCC(=O)C=C1CC[C@@H]1C2CC[C@]2(C)Nc3[nH]ncc3CC12 (stereo not given in full)
inactive: SK-MEL-5 > 100 µM | HOP-62 > 100 µM | OVCAR-3 > 100 µM | OVCAR-4 > 100 µM | EKVX 77.4 µM | HT-29 > 100 µM | UACC-62 > 100 µM | NCI-H226 60.3 µM | KM-20L2 > 100 µM | RPMI-8226 > 100 µM | SW-620 > 100 µM | RXF 393 > 100 µM | Malme-3M > 100 µM | UO-31 > 100 µM

COC(=O)c1ccccc1CC1Cc2ccc3c(c2C1=O)CCC3 (stereo not given)
inactive: HOP-92 22.4 µM | SK-MEL-5 23 µM | MDA-MB-435 24.9 µM | HOP-62 > 100 µM | OVCAR-3 > 100 µM | SR 31 µM | NCI-H522 22.1 µM | OVCAR-4 29.9 µM | EKVX 25.6 µM | HT-29 27.9 µM | UACC-62 39.5 µM | NCI-H226 77.8 µM | LOX IMVI 29.5 µM | RPMI-8226 30.9 µM | BT-549 34.7 µM | SW-620 99.1 µM | RXF 393 35.4 µM | Malme-3M 28.8 µM | UO-31 49.4 µM

CN(CC(=O)O)Cc1oc(CO)cc(=O)c1O
inactive: HOP-92 > 100 µM | SK-MEL-5 > 100 µM | MDA-MB-435 > 100 µM | HOP-62 > 100 µM | OVCAR-3 > 100 µM | SR > 100 µM | NCI-H522 > 100 µM | OVCAR-4 > 100 µM | EKVX > 100 µM | HT-29 > 100 µM | UACC-62 > 100 µM | NCI-H226 > 100 µM | LOX IMVI > 100 µM | RPMI-8226 > 100 µM | BT-549 > 100 µM | SW-620 > 100 µM | RXF 393 > 100 µM | Malme-3M > 100 µM | UO-31 > 100 µM

Reference: ChEMBL document CHEMBL1201862, “PubChem BioAssay data set” (2004)
